≈ marks a conversion by molar mass, not a printed value. Like-named read-outs stand apart in the source and are kept apart here. Marks after values point to notes of the source that are not given here.
Assays:
NDM-1 [1] = biological target: T1, NDM-1 (Klebsiella pneumoniae, UniProt C7C422); assay: biochemical; assay type: biochemical; settings: for inhibition of nitrocefin turnover: at the concentrations tested, up to 320 μM
Target sequence in this assay (C7C422 29-270, looked up): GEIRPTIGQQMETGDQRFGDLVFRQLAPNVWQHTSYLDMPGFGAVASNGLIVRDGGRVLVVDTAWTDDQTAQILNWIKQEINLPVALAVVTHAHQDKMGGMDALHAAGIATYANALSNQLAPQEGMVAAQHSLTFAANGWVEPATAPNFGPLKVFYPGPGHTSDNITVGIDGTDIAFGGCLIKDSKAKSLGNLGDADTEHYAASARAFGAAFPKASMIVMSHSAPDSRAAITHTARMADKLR

[2] = system: E. coli MG1655 expressing NDM-1; assay: microbe, parasite or virus in culture; assay type: cell-based; settings: for MIC: Escherichia coli; for MG1655 MIC: compound alone, 20 h, Mueller-Hinton broth
NDM-1 [3] = biological target: T1, NDM-1; assay type: binding; settings: 10 μM NDM-1, after dialysis
Target sequence in this assay (C7C422 29-270, looked up): as above

CoCo-NDM-1 = CoCo-NDM-1 (Klebsiella pneumoniae, UniProt C7C422); assay type: binding; settings: 300 μM CoCo-NDM-1, one or two equivalents of compound
[4] = system: E. coli MG1655 expressing NDM-1; assay type: cell-based
NDM-1 [5] = biological target: T1, NDM-1; assay type: biochemical; settings: 0–60 μM inhibitor; for change of Vmax with increasing inhibitor concentration: 10 nM NDM-1, Figure S5; for inhibition mode: 10 nM NDM-1, nitrocefin 63–500 μM
Target sequence in this assay (C7C422 29-270, looked up): as above

NDM-1 [6] = biological target: T1, NDM-1; assay type: cell-based, E. coli; settings: for reduction of nitrocefin turnover: 100 μM, treated for 60 minutes at room temperature
Target sequence in this assay (C7C422 37-270 limits assumed): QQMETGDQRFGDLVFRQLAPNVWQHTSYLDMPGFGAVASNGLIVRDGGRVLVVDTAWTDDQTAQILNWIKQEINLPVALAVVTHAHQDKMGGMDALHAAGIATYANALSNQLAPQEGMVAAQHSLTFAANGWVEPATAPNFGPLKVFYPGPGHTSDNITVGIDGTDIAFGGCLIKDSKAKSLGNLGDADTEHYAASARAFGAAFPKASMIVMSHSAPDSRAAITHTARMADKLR

[7] = system: E. coli MG1655 expressing CTX-M-1; assay type: cell-based
[8] = system: E. coli UTI89 expressing NDM-1; assay: microbe, parasite or virus in culture; assay type: cell-based; settings: for MIC: Escherichia coli; for UTI89 MIC: compound alone, Mueller-Hinton broth
NDM-1 [9] = biological target: T1, NDM-1; assay: Turnover of PcephPT by purified NDM-1; assay type: biochemical; settings: 5 nM NDM-1, concentrations up to 160 μM, HEPES pH 7.2, 37 °C
Target sequence in this assay (C7C422 29-270, looked up): as the sequence (C7C422 29-270, looked up) above

susceptible strains = settings: no reference given; cited from earlier work
[10] = MG1655, 20 h, read-out: MG1655 MIC
[11] = OD600 every 30 minutes over 20 h

Sequence of CoCo-NDM-1 (C7C422 29-270, looked up): as above

CC(=O)OCC1=C(C(=O)O)N2C(=O)[C@@H](NC(=O)Cc3cccs3)[C@H]2SC1 [Cephalothin]
IC50 (NDM-1 [1]): 9.1 µM

O=C(Cc1ccccc1)N[C@@H]1C(=O)N2C(C(=O)O)=C(CSc3cccc[n+]3[O-])CS[C@H]12 [PcephPT, 2-((((6R,7R)-2-carboxy-8-oxo-7-(2-phenylacetamido)-5-thia-1-azabicyclo[4.2.0]oct-2-en-3-yl)methyl)thio)pyridine 1-oxide]
effect of increasing incubation time with NDM-1 on IC50 (NDM-1 [1]; Figure S2): did not affect its IC50
MIC [2, 10]: > 160 µM
MG1655 MIC [2]: >160 ^* μM
zinc removed from NDM-1 (NDM-1 [3]; 40 μM (four equivalents)): did not lead to loss of zinc
zinc removed from NDM-1 (NDM-1 [3]; 160 μM (sixteen equivalents)): did not lead to loss of zinc
change of CoCo-NDM-1 UV-Vis spectrum (CoCo-NDM-1): increase in absorbance in the 500–650 nm region
effect of addition of copper on growth pattern ([4]; Figure S3): no significant difference
time of onset of growth inhibition ([4]; at concentrations of 40 μM and higher): between five and eight hours
concentration giving delayed onset of growth inhibition ([4]; growth initially in all conditions): ≥ 40 µM
change of Vmax with increasing inhibitor concentration (NDM-1 [5]): clear decrease in Vmax
inhibition mode (NDM-1 [5]): not competitive
reduction of nitrocefin turnover (NDM-1 [6]): more than 75%
inhibition of nitrocefin turnover (NDM-1 [6]; cells exposed for only 30 minutes, compared with 60 minutes): less inhibited
growth pattern ([7]; varying concentrations, compared with PT): identical to that caused by PT
MIC ([8]; 20 h, read-out: UTI89 MIC): > 160 µM
UTI89 MIC ([8]; 20 h): >160 ^* μM
turnover of compound by NDM-1 (NDM-1 [9]): turned over by 5 nM NDM-1 efficiently

CO/N=C(\C(=O)N[C@@H]1C(=O)N2C(C(=O)O)=C(CSc3nc(=O)c(=O)[nH]n3C)CS[C@H]12)c1csc(N)n1 [Ceftriaxone]
IC50 (NDM-1 [1]): 16 µM

[O-][n+]1ccccc1S [PT, pyrithione]
IC50 (NDM-1 [1]): 17 µM
MIC [2, 10]: 20 µM (≈ 2.54 µg/mL)
zinc removed from NDM-1 (NDM-1 [3]; 40 μM (four equivalents)): did not lead to loss of zinc
zinc removed from NDM-1 (NDM-1 [3]; 160 μM (sixteen equivalents)): did not lead to loss of zinc
change of CoCo-NDM-1 UV-Vis spectrum (CoCo-NDM-1): increase in absorbance in the 500–650 nm region
concentration that fully inhibits growth [4, 11]: ≥ 20 µM
growth pattern ([4]; at 10 μM): delayed growth
change of Vmax with increasing inhibitor concentration (NDM-1 [5]): clear decrease in Vmax
inhibition mode (NDM-1 [5]): not competitive
reduction of nitrocefin turnover (NDM-1 [6]): more than 75%
concentration that fully inhibits growth [7, 11]: ≥ 20 µM
growth pattern ([7]; at 10 μM): delayed growth
MIC ([8]; 20 h, read-out: UTI89 MIC): 40 µM (≈ 5.09 µg/mL)

O=C(O)c1cccc(C(=O)O)n1 [DPA, dipicolinic acid]
IC50 (NDM-1 [1]): 1.8 µM

C[C@@H](O)[C@H]1C(=O)N2C(C(=O)O)=C(SCCN=CN)C[C@H]12 [Imipenem]
IC50 (NDM-1 [1]): > 100 µM
inhibition of nitrocefin turnover (NDM-1 [1]): did not inhibit nitrocefin turnover

c1ccc(CN(CCN(Cc2ccccn2)Cc2ccccn2)Cc2ccccn2)nc1 [TPEN, N,N,N′,N′-tetrakis(2-pyridinylmethyl)-1,2-ethanediamine]
IC50 (NDM-1 [1]): 0.088 µM

CC1=C(C(=O)O)N2C(=O)[C@@H](NC(=O)[C@H](N)c3ccccc3)[C@H]2SC1 [Cephalexin]
IC50 (NDM-1 [1]): 36 µM

C[C@@H](O)[C@H]1C(=O)N2C(C(=O)O)=C(S[C@@H]3CN[C@H](C(=O)N(C)C)C3)[C@H](C)[C@H]12 [Meropenem]
IC50 (NDM-1 [1]): > 100 µM
inhibition of nitrocefin turnover (NDM-1 [1]): did not inhibit nitrocefin turnover
MIC [2, 10]: > 160 µM
MIC ([2]; MG1655, read-out: MG1655 MIC of meropenem): 10 µM
MG1655 MIC [2]: >160 µM
MG1655 MIC of meropenem ([2]; with fixed 10 μM PT): not restored
MG1655 MIC of meropenem ([2]; with fixed 10 μM PcephPT): not restored
MIC (susceptible strains): lower than 10 μM
MIC ([8]; 20 h, read-out: UTI89 MIC): > 160 µM
MIC ([8]; read-out: UTI89 MIC of meropenem): 10 µM
UTI89 MIC ([8]; 20 h): >160 µM
UTI89 MIC of meropenem ([8]; with fixed 10 μM PT): not restored
UTI89 MIC of meropenem ([8]; with fixed 10 μM PcephPT): not restored
